Measured values reported in PubChem BioAssay AID330 (DTP/NCI, 2004).
Several values for one entry are separate records, joined by “and”; a condition that tells them apart may be missing. Equal values may be shown once. Inconclusive results and toxic doses are left out.

System: P388 leukemia ip, CD2F1 mice, survival T/C
Experiment: NCI In Vivo Anticancer Drug Screen. Data for tumor model P388 Leukemia (intraperitoneal) in CD2F1 (CDF1) mice
Details: endpoint: median survival time, higher = longer survival
Summary of the method: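 Mice carrying the transplanted tumor received test compound or vehicle. Survival was recorded in each group, and the value is the treated-group measurement divided by that of the vehicle-treated control group.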

[1] = dose: 50.0 mg/kg/injection, schedule: Q01DX009 (ip), vehicle: saline with Tween-80
[2] = dose: 100.0 mg/kg/injection, schedule: Q01DX009 (ip), vehicle: saline with Tween-80
[3] = dose: 200.0 mg/kg/injection, schedule: Q01DX009 (ip), vehicle: saline with Tween-80
[4] = dose: 25.0 mg/kg/injection, schedule: Q01DX009 (ip), vehicle: Klucel (hydroxypropylcellulose) (HPC)
[5] = dose: 50.0 mg/kg/injection, schedule: Q01DX009 (ip), vehicle: Klucel (hydroxypropylcellulose) (HPC)
[6] = dose: 100.0 mg/kg/injection, schedule: Q01DX009 (ip), vehicle: Klucel (hydroxypropylcellulose) (HPC)
[7] = dose: 200.0 mg/kg/injection, schedule: Q01DX009 (ip), vehicle: Klucel (hydroxypropylcellulose) (HPC)
[8] = dose: 50.0 mg/kg/injection, schedule: Q01DX005 (ip), vehicle: saline with Tween-80
[9] = dose: 100.0 mg/kg/injection, schedule: Q01DX005 (ip), vehicle: saline with Tween-80
[10] = dose: 200.0 mg/kg/injection, schedule: Q01DX005 (ip), vehicle: saline with Tween-80
[11] = dose: 12.5 mg/kg/injection, schedule: Q01DX005 (ip), vehicle: saline with Tween-80
[12] = dose: 25.0 mg/kg/injection, schedule: Q01DX005 (ip), vehicle: saline with Tween-80

C[CH2][Ge]([CH2]C)[CH2]/C=C\[CH2][Ge]([CH2]C)[CH2]C
T/C [1]: 94 % of control
T/C [2]: 117 % of control

Cc1c(C)[n+]([O-])c(-c2ccc(Cl)cc2)n1O
T/C [1]: 100 % of control
T/C [2]: 100 % of control
T/C [3]: 100 % of control

N#CC(CN1CCOCC1)CN1CCOCC1
T/C [1]: 95 % of control
T/C [2]: 101 % of control
T/C [3]: 96 % of control

COc1c(C(C)C)cc2c(c1OC)C13CCCC(C)(C)C1C(OC3=O)C2NC(=O)CCN(C)C (stereo unspecified)
T/C [4]: 97 % of control
T/C [5]: 98 % of control
T/C [6]: 90 % of control

Clc1ccc(-c2nc(-c3cc4cc(Cl)ccc4o3)cs2)cc1
T/C [5]: 100 % of control
T/C [6]: 100 % of control
T/C [7]: 104 % of control

CCCOC(=O)c1ccc2nc(NC(=O)OC)[nH]c2c1
T/C [8]: 96 % of control
T/C [9]: 91 % of control
T/C [10]: 97 % of control

COc1cc2c(cc1OC)C(C)C1c3cc4c(cc3CCN1C2)OCO4 (stereo unspecified)
T/C (dose: 50.0 mg/kg/injection, schedule: Q04DX003 (ip), vehicle: distilled water + Tween-80): 103 % of control and 100 % of control
T/C (dose: 100.0 mg/kg/injection, schedule: Q04DX003 (ip), vehicle: distilled water + Tween-80): 97 % of control and 103 % of control
T/C (dose: 200.0 mg/kg/injection, schedule: Q04DX003 (ip), vehicle: distilled water + Tween-80): 99 % of control and 103 % of control
T/C (dose: 400.0 mg/kg/injection, schedule: Q04DX003 (ip), vehicle: distilled water + Tween-80): 103 % of control

CCCCCCCCCCCCCCCn1nnnc1N
T/C [8]: 86 % of control
T/C [9]: 91 % of control
T/C [10]: 96 % of control

CCOC(=O)N1CCN(C(=S)N/N=C(\C)c2ncccn2)CC1
T/C (dose: 6.25 mg/kg/injection, schedule: Q01DX005 (ip), vehicle: saline with Tween-80): 123 % of control
T/C [11]: 97 % of control

COC(=O)[C@]1(CC[N+](=O)[O-])N=C(c2ccccc2)O[C@@H]1C
T/C (dose: 60.0 mg/kg/injection, schedule: Q01DX005 (ip), vehicle: saline with Tween-80): 105 % of control
T/C (dose: 120.0 mg/kg/injection, schedule: Q01DX005 (ip), vehicle: saline with Tween-80): 109 % of control
T/C (dose: 240.0 mg/kg/injection, schedule: Q01DX005 (ip), vehicle: saline with Tween-80): 113 % of control

CCOC(=O)c1ccccc1N
T/C [12]: 100 % of control
T/C [8]: 105 % of control
T/C [9]: 99 % of control
T/C [10]: 100 % of control

CC1(CO)C2CCC(CC2)C1CO (stereo unspecified)
T/C [1]: 109 % of control
T/C [2]: 100 % of control
T/C [3]: 104 % of control

CC(C)C1OC2(CCCC2)OCC1(C)C (stereo unspecified)
T/C (dose: 100.0 mg/kg/injection, schedule: Q04DX003 (ip), vehicle: Klucel (hydroxypropylcellulose) (HPC)): 103 % of control
T/C (dose: 200.0 mg/kg/injection, schedule: Q04DX003 (ip), vehicle: Klucel (hydroxypropylcellulose) (HPC)): 103 % of control
T/C (dose: 400.0 mg/kg/injection, schedule: Q04DX003 (ip), vehicle: Klucel (hydroxypropylcellulose) (HPC)): 100 % of control

CN(C)CCCN1c2ccccc2Cc2ccccc21
T/C [11]: 111 % of control
T/C [12]: 108 % of control
T/C [8]: 100 % of control and 111 % of control
T/C [9]: 114 % of control

CC1(C)OC(=O)C=C[C@]2(C)[C@H]3CC[C@@]4(C)[C@H](c5ccoc5)C[C@H]5O[C@]54[C@]3(C)C(=O)[C@H](O)[C@@H]12
T/C (dose: 1.25 mg/kg/injection, schedule: Q04DX003 (ip), vehicle: Klucel (hydroxypropylcellulose) (HPC)): 91 % of control
T/C (dose: 2.5 mg/kg/injection, schedule: Q04DX003 (ip), vehicle: Klucel (hydroxypropylcellulose) (HPC)): 96 % of control
T/C (dose: 5.0 mg/kg/injection, schedule: Q04DX003 (ip), vehicle: Klucel (hydroxypropylcellulose) (HPC)): 94 % of control
T/C (dose: 10.0 mg/kg/injection, schedule: Q04DX003 (ip), vehicle: Klucel (hydroxypropylcellulose) (HPC)): 98 % of control

O=C1N/C(=N/O)CC(NO)N1 (stereo unspecified)
T/C (dose: 100.0 mg/kg/injection, schedule: Q04DX002 (ip), vehicle: Klucel (hydroxypropylcellulose) (HPC)): 97 % of control
T/C (dose: 200.0 mg/kg/injection, schedule: Q04DX002 (ip), vehicle: Klucel (hydroxypropylcellulose) (HPC)): 100 % of control
T/C (dose: 400.0 mg/kg/injection, schedule: Q04DX002 (ip), vehicle: Klucel (hydroxypropylcellulose) (HPC)): 102 % of control

C=C(C)CN1C(=O)C(C)S/C1=N/N=C1/SCC(=O)N1C (stereo unspecified)
T/C (dose: 62.5 mg/kg/injection, schedule: Q01DX009 (ip), vehicle: saline): 99 % of control
T/C (dose: 125.0 mg/kg/injection, schedule: Q01DX009 (ip), vehicle: saline): 98 % of control

C[C@H]1CC(=O)C[C@H]2CCCCN21
T/C (dose: 12.5 mg/kg/injection, schedule: Q01DX005 (ip), vehicle: saline): 103 % of control
T/C (dose: 25.0 mg/kg/injection, schedule: Q01DX005 (ip), vehicle: saline): 105 % of control
T/C (dose: 50.0 mg/kg/injection, schedule: Q01DX005 (ip), vehicle: saline): 101 % of control

CC(=O)c1ccc(O)c(CN(CCC#N)CCC#N)c1O
T/C [1]: 96 % of control
T/C [2]: 89 % of control
T/C [3]: 90 % of control

O=C1c2ccccc2C(=O)C23OC12C1C=CC3CC1 (stereo unspecified)
T/C (dose: 50.0 mg/kg/injection, schedule: Q01DX001 (ip), vehicle: Klucel (hydroxypropylcellulose) (HPC)): 94 % of control
T/C (dose: 100.0 mg/kg/injection, schedule: Q01DX001 (ip), vehicle: Klucel (hydroxypropylcellulose) (HPC)): 91 % of control
T/C (dose: 200.0 mg/kg/injection, schedule: Q01DX001 (ip), vehicle: Klucel (hydroxypropylcellulose) (HPC)): 93 % of control

C1OC1CN1CCN(CC2CO2)CC1 (stereo unspecified)
T/C (dose: 4.0 mg/kg/injection, schedule: Q01DX009 (ip), vehicle: saline): 124 % of control
T/C (dose: 8.0 mg/kg/injection, schedule: Q01DX009 (ip), vehicle: saline): 150 % of control
T/C (dose: 16.0 mg/kg/injection, schedule: Q01DX009 (ip), vehicle: saline): 196 % of control

CCCCCCC(O)/C=C/c1ccc(N(C)C)cc1 (stereo unspecified)
T/C [5]: 103 % of control
T/C [6]: 99 % of control
T/C [7]: 102 % of control

CCNCC(=O)Nc1ccc(C2NC(=O)C(C)(C)c3ccccc32)cc1 (stereo unspecified)
T/C (dose: 50.0 mg/kg/injection, schedule: Q01DX009 (ip), vehicle: saline): 99 % of control
T/C (dose: 100.0 mg/kg/injection, schedule: Q01DX009 (ip), vehicle: saline): 101 % of control
T/C (dose: 200.0 mg/kg/injection, schedule: Q01DX009 (ip), vehicle: saline): 97 % of control

Oc1cc(O)cc(/C=C/c2ccc(O)c(O)c2)c1
T/C (dose: 3.12 mg/kg/injection, schedule: Q01DX009 (ip), vehicle: DMSO): 109 % of control
T/C (dose: 6.25 mg/kg/injection, schedule: Q01DX009 (ip), vehicle: DMSO): 114 % of control
T/C (dose: 12.5 mg/kg/injection, schedule: Q01DX009 (ip), vehicle: DMSO): 118 % of control
T/C (dose: 25.0 mg/kg/injection, schedule: Q01DX009 (ip), vehicle: DMSO): 123 % of control

C=CC(C)(C)n1cc(C2=C(O)C(=O)C(c3cn(C(C)(C)C=C)c4ccccc34)=C(O)C2=O)c2ccccc21
T/C (dose: 2.5 mg/kg/injection, schedule: Q01DX009 (ip), vehicle: carboxymethylcellulose (CMC)): 101 % of control
T/C (dose: 5.0 mg/kg/injection, schedule: Q01DX009 (ip), vehicle: carboxymethylcellulose (CMC)): 103 % of control and 88 % of control
T/C (dose: 6.25 mg/kg/injection, schedule: Q01DX009 (ip), vehicle: Klucel (hydroxypropylcellulose) (HPC)): 99 % of control
T/C (dose: 10.0 mg/kg/injection, schedule: Q01DX009 (ip), vehicle: carboxymethylcellulose (CMC)): 108 % of control and 93 % of control
T/C (dose: 12.5 mg/kg/injection, schedule: Q01DX009 (ip), vehicle: Klucel (hydroxypropylcellulose) (HPC)): 100 % of control
T/C (dose: 18.0 mg/kg/injection, schedule: Q01DX009 (ip), vehicle: Klucel (hydroxypropylcellulose) (HPC)): 95 % of control
T/C (dose: 20.0 mg/kg/injection, schedule: Q01DX009 (ip), vehicle: carboxymethylcellulose (CMC)): 120 % of control and 90 % of control
T/C [4]: 99 % of control
T/C (dose: 26.0 mg/kg/injection, schedule: Q01DX009 (ip), vehicle: Klucel (hydroxypropylcellulose) (HPC)): 104 % of control
T/C (dose: 40.0 mg/kg/injection, schedule: Q01DX009 (ip), vehicle: Klucel (hydroxypropylcellulose) (HPC)): 90 % of control
T/C (dose: 40.0 mg/kg/injection, schedule: Q01DX009 (ip), vehicle: carboxymethylcellulose (CMC)): 114 % of control
T/C [5]: 100 % of control
T/C [6]: 113 % of control

CNC(=O)c1ccccc1O
T/C [1]: 103 % of control
T/C [2]: 103 % of control
T/C [3]: 95 % of control
T/C (dose: 400.0 mg/kg/injection, schedule: Q01DX009 (ip), vehicle: saline with Tween-80): 90 % of control
